Patent US8648113B2, “Mixture and compounds from mycelia of Antrodia camphorata and use thereof” (Simpson Biotech Co., Ltd., priority 2004, dated 2014)
Where “and” joins values, the source holds several entries; their conditions need not be identical. Equal entries are not always repeated. Where two headings read alike, the source gives them in different places.

What was measured:
[1] = test system: LLC (Lewis lung carcinoma) cell line
[2] = test system: LLC (Lewis lung carcinoma) cell line; experiment: Cytotoxic assay, in vitro LLC tumor cell assay (SRB method); details: for 50% Growth Inhibition (ED50): SRB method
[3] = test system: spontaneously hypertensive rats (SHR); details: 0.1 mg/kg PO, Ave. of 3 rats (Tables 7 and 9: two experiments)
Experimental: Blood pressure and heart rate were recorded indirectly by tail cuff method in a temperature controlled environment (32±1° C.) before (0 time) and 1, 2 and 4 hours after oral administration of test substance or vehicle. A reduction in systolic pressure by 10 percent or more (>10%), or decrease in heart rate by 20 percent or more (≧20%), at each measured time interval relative to 0 time, is considered significant.
Blood pressure was recorded indirectly vial tail cuff at 0 time (before) and 1, 2 and 4 hours after oral administration of vehicle or test substance. A reduction in blood pressure by 10 percent or more (10%), or decrease in heart rate by 20 percent or more (≧20%) at each measurement time point relative to 0 time, shown in parenthesis, is considered significant.

[4] = test system: HT-29: human colon adenocarcinoma; experiment: Tumor assay of ACM, MTT method, HT-29; format: cell-based; details: 3 days
Description: (§1) Tumor Assay of ACM (Antrodia camphorata Mycelia Powder) A. Cell Line • Adherent Cell • MCF-7: human breast carcinoma • HT-29: human colon adenocarcinoma • KATO III: human stomach carcinoma • SW480: human colon adenocarcinoma • SW620: human colon adenocarcinoma • HepG2: human liver carcinoma • Suspension Cell • EL4: mice lymphoma B. Samples • Compound 1, Compound 3, ACM EtOH Extract, ACM H2O Extract C. Assay Method • Calculate ED50 (50% inhibition of effective dose) • Adherent cell: MTT (methyl thiazolyl tetrazolium) method for MCF-7, HT-29, KATO III, SW480, HepG2, cells are determined at 3 days. SW620 at 4 days • Suspension cell: Cell count method; EL4 cells count at 5 days D. Result Calculation: y=m Ln(x)+b
(§2) Use value of X (10, 30, 50 ppm) and Y to get correlation curve y=−0.2643 Ln(x)+1.5321 ED50=exp[0.97/2−1.5321/(−0.2643)] Sample Preparation and Sample Description A. ACM (Antrodia Camphorata Mycelia Powder) H2O Extract 1. Add 1 g of ACM into 40 ml of RO H2O in a 250 ml beaker, put the beaker in ultrasonic water bath for 20 min at room temperature 2. Stir at 45° C. water bath for 45 min 3. Place the beaker in ultrasonic water bath for another 20 min 4. Centrifuge the sample at 3000 rpm for 15 min 5. Collect supernatant and perform serial dilutions with media B. Determination of Sample Concentration 1. […] Read at OD545 on Elisa reader Cell Count Method (EL4 Cell Line) 1. […]

[5] = test system: KATO III: human stomach carcinoma; experiment: Tumor assay of ACM, MTT method, KATO III; format: cell-based; details: 3 days
Description: as §1, §2

[6] = test system: MCF-7: human breast carcinoma; experiment: Tumor assay of ACM, MTT method, MCF-7; format: cell-based; details: 3 days
Description: as §1, §2

[7] = test system: SW620: human colon adenocarcinoma; experiment: Tumor assay of ACM, MTT method, SW620; format: cell-based; details: 4 days
Description: as §1, §2

EL4: mice lymphoma = experiment: Tumor assay of ACM, cell count method, EL4; format: cell-based; details: 5 days
Description: as §1, §2

[8] = test system: HepG2: human liver carcinoma; experiment: Tumor assay of ACM, MTT method, HepG2; format: cell-based; details: 3 days
Description: as §1, §2

[9] = test system: ICR derived male mice, carbon tetrachloride induced hepatic injury; experiment: Hepatic Injury, Carbon Tetrachloride, in Mice; format: in vivo, mouse; details: for ALT, group mean (X) / AST, group mean (X) / ALT, individual animal / AST, individual animal: CCl4-challenged ICR mice; for ALT, group mean (X) / AST, group mean (X): mean of 5; for ALT, individual animal / AST, individual animal: single animals N 1-5, 24 h after CCl4; for ALT Dec. % / AST Dec. %: decrease relative to vehicle group, brackets = 30% or greater
Experimental: Nine groups of ICR derived male mice (weighing 22±2 g) of 5 each were used. Each animals was challenged with a single dose of carbon tetrachloride (CCl4, 0.1 ml/kg in 50% olive oil, PO). […] The animals were sacrificed 24 hours after CCl4. Alanine aminotransferase (ALT) and Aspartate aminotransferase (AST) levels were measured by optimized UV method using a HITACHI automatic analyzer (model 7050). A reduction of ALT or AST levels by 30 percent or greater (30%), relative to the vehicle group, indicating significant protection from hepatic injury.
The test substance of ACM at doses 300 and 1000 mg/kg and compound 3 of the invention at doses 30, 100 and 300 mg/kg were administered orally to test animals 0.5 hour before and 4, 8 hours after CCl4 challenge. […] The degree of hepatic injury was determined by increase in serum alanine aminotransferase (ALT) and aspartate aminotransferase (AST) levels relative to the vehicle treated animals. ACM at 1000 mg/kg×3 and compound 3 of the invention at 300 mg/kg×3 caused a significant reduction of ALT (46% and 41%) and AST (36% and 33%) relative to the vehicle treated animals.

[10] = test system: SW480: human colon adenocarcinoma; experiment: Tumor assay of ACM, MTT method, SW480; format: cell-based; details: 3 days
Description: as §1, §2

CC(C)=CCOc1ccc([C@H]2C(=O)N(O)C(=O)[C@@H]2CC(C)C)cc1 (relative stereo) [Compound 4, 3R*,4S*-1-Hydroxy-3-isobutyl-4-[4-(3-methyl-2-butenyloxy)phenyl]pyrrolidine-2,5-dione]
cytotoxic activity (in words) [1]: no cytotoxic activity
50% Growth Inhibition (ED50) [2]: >10 µg/mL

Clc1cccc(Cl)c1N=C1NCCN1 [Clonidine]
Heart Rate % Control (from 0 times), 2 Hours [3]: 90% and 86%
Heart Rate % Control (from 0 times), 4 Hours [3]: 98% and 102%

CC(C)=CCOc1ccc(C2=C(CC(C)C)C(=O)OC2=O)cc1 [Compound 1, 3-Isobutyl-4-[4-(3-methyl-2-butenyloxy)phenyl]furan-2,5-dione]
ED50 [4]: 52 ppm
ED50 [5]: 38 ppm
ED50 [6]: 6 ppm
ED50 [7]: 15 ppm
cytotoxic activity (in words) [2]: no cytotoxic activity
50% Growth Inhibition (ED50) [2]: >20 µg/mL
ED50 (EL4: mice lymphoma): 3.5 ppm
ED50 [8]: 21 ppm

CC(C)=CCOc1ccc(C2=C(CC(C)C)C(=O)N(O)C2=O)cc1 [Compound 3, 3-Isobutyl-4-[4-(3-methyl-2-butenyloxy)phenyl]-1H-pyrrol-1-ol-2,5-dione]
ED50 [4]: 42 ppm
ED50 [5]: 69 ppm
ED50 [6]: 0.02 ppm
ED50 [7]: 27 ppm
cytotoxic activity (in words) [2]: cytotoxic
50% Growth Inhibition (ED50) [2]: 7.5 µg/mL
ED50 (EL4: mice lymphoma): 2.6 ppm
reduction of ALT relative to the vehicle treated animals ([9]; CCl4 mice, 300 mg/kg×3 PO): 41%
reduction of AST relative to the vehicle treated animals ([9]; CCl4 mice, 300 mg/kg×3 PO): 33%
ALT, group mean (X) ([9]; PO 30 mg/kg × 3): 3360 U/L
AST, group mean (X) ([9]; PO 30 mg/kg × 3): 1962 U/L
ALT, individual animal ([9]; PO 30 mg/kg × 3): 4296 U/L and 3696 U/L and 2152 U/L and 2400 U/L and 4256 U/L
AST, individual animal ([9]; PO 30 mg/kg × 3): 2136 U/L and 2288 U/L and 1096 U/L and 1792 U/L and 2496 U/L
ALT Dec. % ([9]; PO 30 mg/kg × 3): −1%
AST Dec. % ([9]; PO 30 mg/kg × 3): −16%
ALT, group mean (X) ([9]; PO 100 mg/kg × 3): 3342 U/L
AST, group mean (X) ([9]; PO 100 mg/kg × 3): 1984 U/L
ALT, individual animal ([9]; PO 100 mg/kg × 3): 3200 U/L and 4576 U/L and 2512 U/L and 2728 U/L and 3696 U/L
AST, individual animal ([9]; PO 100 mg/kg × 3): 2256 U/L and 2976 U/L and 1536 U/L and 1552 U/L and 1600 U/L
ALT Dec. % ([9]; PO 100 mg/kg × 3): 0%
AST Dec. % ([9]; PO 100 mg/kg × 3): −17%
ALT, group mean (X) ([9]; PO 300 mg/kg × 3): 1966 U/L
AST, group mean (X) ([9]; PO 300 mg/kg × 3): 1130 U/L
ALT, individual animal ([9]; PO 300 mg/kg × 3): 1368 U/L and 1576 U/L and 1440 U/L and 2728 U/L and 2720 U/L
AST, individual animal ([9]; PO 300 mg/kg × 3): 776 U/L and 896 U/L (2×) and 1352 U/L and 1728 U/L
ALT Dec. % ([9]; PO 300 mg/kg × 3): (41) %
AST Dec. % ([9]; PO 300 mg/kg × 3): (33) %
ED50 [8]: 35 ppm
ED50 [10]: 20 ppm
